Results on 19 compounds are retold here after patent US20230081426A1, “COMPOUNDS AND METHODS FOR KRAS MODULATION AND INDICATIONS THEREFOR” (Plexxikon Inc., priority 2020, published 2023).

In test [1] the target is T1, G12D-mutant human KRAS (amino acid residues 1-188) (Homo sapiens, UniProt P01116, G12D).
T1 construct: G12D or G12C-mutant human KRAS (amino acid residues 1-188) with FLAG tag; made in house; host or cells: E. coli
Description: KRAS Binding Disruption Assay (AlphaScreen; biotinylated KRpep-2d analogue or RAF1-RBD), G12D. Particulars: KRAS G12D; geometric mean; read-out: KRAS GMean IC50 (uM) MUTATION: G12D. In outline: (§1)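 AlphaScreen readout: signal falls as compound displaces biotinylated KRpep-2d analogue or RAF1-RBD from mutant KRAS. Both partners at 5-20 nM, 1 h binding at 25° C, then 10 μg/mL Anti-Flag acceptor and streptavidin donor beads for 1 h. IC50 by nonlinear regression of % inhibition.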

Test [2] concerns the target T2, G12C-mutant human KRAS (amino acid residues 1-188) (Homo sapiens, UniProt P01116, G12C).
T2 construct: G12D or G12C-mutant human KRAS (amino acid residues 1-188) with FLAG tag; made in house; host or cells: E. coli
As to the kind of experiment: KRAS Binding Disruption Assay (AlphaScreen; biotinylated KRpep-2d analogue or RAF1-RBD), G12C. The conditions noted are these: geometric mean, read-out: KRAS GMean IC50 (uM) MUTATION: G12C. In outline:
as §1

In test [3] the target is T3, G12V-mutant human KRAS (amino acid residues 1-188) (Homo sapiens, UniProt P01116, G12V).
T3 construct: G12V-mutant human KRAS (amino acid residues 1-188) with FLAG tag was purified from E. coli; made in house; host or cells: E. coli
As to the kind of experiment: KRAS Binding Competition Assay (AlphaScreen; biotinylated KRpep-2d analogue), G12V. Particulars: geometric mean, read-out: KRAS GMean IC50 (uM) MUTATION: G12V.

Structures are written as SMILES.

By IC50 is commonly meant the concentration needed to halve the response being measured. As for `Oc1cc(-c2ccc3c(N4C[C@H]5CC[C@@H](C4)N5)nc(OCC45CCCN4CCC5)nc3c2F)c2ccccc2c1` [P-0048, 4-(4-((1R,5S)-3,8-diazabicyclo[3.2.1]octan-3-yl)-8-fluoro-2-((tetrahydro-1H-pyrrolizin-7a(5H)-yl)methoxy)quinazolin-7-yl)naphthalen-2-ol], the IC50 in test [1], in test [2] and in test [3] was 0.0001 to 10 µM each time.

As for `Oc1cccc(F)c1-c1ccc2c(N3C[C@H]4CC[C@@H](C3)N4)nc(OCC34CCCN3CCC4)nc2c1F` [P-0049, 2-(4-((1R,5S)-3,8-diazabicyclo[3.2.1]octan-3-yl)-8-fluoro-2-((tetrahydro-1H-pyrrolizin-7a(5H)-yl)methoxy)quinazolin-7-yl)-3-fluorophenol], the IC50 in test [1] was 0.0001 to 10 µM; in test [2], 10 to 100 µM; in test [3] it was 100 to 1000 µM.

As for `Oc1cc(-c2ccc3c(C4C[C@H]5CC[C@@H](C4)N5)nc(OCC45CCCN4CCC5)nc3c2)c2ccccc2c1` (stereo partly drawn) [P-0053, 4-(4-((1R,5S)-8-azabicyclo[3.2.1]octan-3-yl)-2-((tetrahydro-1H-pyrrolizin-7a(5H)-yl)methoxy)quinazolin-7-yl)naphthalen-2-ol], the values for the 50% inhibitory concentration (IC50) in test [1], in test [2] and in test [3] were 0.0001 to 10 µM, 10 to 100 µM and 10 to 100 µM, respectively.

Turning to `Oc1cc(-c2ncc3c(N4C[C@H]5CC[C@@H](C4)N5)nc(OCC45CCCN4CCC5)nc3c2F)c2ccccc2c1` [P-0055, 4-(4-((1R,5S)-3,8-diazabicyclo[3.2.1]octan-3-yl)-8-fluoro-2-((tetrahydro-1H-pyrrolizin-7a(5H)-yl)methoxy)pyrido[4,3-d]pyrimidin-7-yl)naphthalen-2-ol], the IC50 in test [1], in test [2] and in test [3] was 0.0001 to 10 µM throughout.

`CN1CCC[C@H]1COc1nc(N2C[C@H]3CC[C@@H](C2)N3)c2cc(CO)c(-c3cc(O)cc4ccccc34)c(F)c2n1` [P-0056, 4-[4-(3,8-diazabicyclo[3.2.1]octan-3-yl)-8-fluoro-6-(hydroxymethyl)-2-[[(2S)-1-methylpyrrolidin-2-yl]methoxy]quinazolin-7-yl]naphthalen-2-ol]: the 50% inhibitory concentration (IC50) in test [1], in test [2] and in test [3] was 0.0001 to 10 µM each time.

`CO[C@@H]1C[C@@H](COc2nc(N3C[C@H]4CC[C@@H](C3)N4)c3ccc(-c4cc(O)cc5ccccc45)cc3n2)N(C)C1` [P-0060, 4-(4-((1R,5S)-3,8-diazabicyclo[3.2.1]octan-3-yl)-2-(((2S,4R)-4-methoxy-1-methylpyrrolidin-2-yl)methoxy)quinazolin-7-yl)naphthalen-2-ol]: the IC50 in test [1], in test [2] and in test [3] was 0.0001 to 10 µM throughout.

As for `CCC(=O)N1[C@@H]2CC[C@H]1CN(c1nc(OCC34CCCN3CCC4)nc3cc(-c4cc(O)cc5ccccc45)ccc13)C2` [P-0063, 1-((1R,5S)-3-(7-(3-hydroxynaphthalen-1-yl)-2-((tetrahydro-1H-pyrrolizin-7a(5H)-yl)methoxy)quinazolin-4-yl)-3,8-diazabicyclo[3.2.1]octan-8-yl)propan-1-one], the IC50 in test [1], in test [2] and in test [3] was 0.0001 to 10 µM throughout.

For the compound `O=C(O)CCC(=O)N1[C@@H]2CC[C@H]1CN(c1nc(OCC34CCCN3CCC4)nc3cc(-c4cc(O)cc5ccccc45)ccc13)C2` [P-0064, 4-((1R,5S)-3-(7-(3-hydroxynaphthalen-1-yl)-2-((tetrahydro-1H-pyrrolizin-7a(5H)-yl)methoxy)quinazolin-4-yl)-3,8-diazabicyclo[3.2.1]octan-8-yl)-4-oxobutanoic acid], the IC50 in test [1], in test [2] and in test [3] was 0.0001 to 10 µM each time.

As to `O=C(c1ccccn1)N1[C@@H]2CC[C@H]1CN(c1nc(OCC34CCCN3CCC4)nc3cc(-c4cc(O)cc5ccccc45)ccc13)C2` [P-0065, ((1R,5S)-3-(7-(3-hydroxynaphthalen-1-yl)-2-((tetrahydro-1H-pyrrolizin-7a(5H)-yl)methoxy)quinazolin-4-yl)-3,8-diazabicyclo[3.2.1]octan-8-yl)(pyridin-2-yl)methanone], the results for the IC50 in test [1], in test [2] and in test [3] were 10 to 100 µM, 0.0001 to 10 µM and 0.0001 to 10 µM, respectively.

As for `CN(C)CC(=O)N1[C@@H]2CC[C@H]1CN(c1nc(OCC34CCCN3CCC4)nc3cc(-c4cc(O)cc5ccccc45)ccc13)C2` [P-0066, 2-(dimethylamino)-1-((1R,5S)-3-(7-(3-hydroxynaphthalen-1-yl)-2-((tetrahydro-1H-pyrrolizin-7a(5H)-yl)methoxy)quinazolin-4-yl)-3,8-diazabicyclo[3.2.1]octan-8-yl)ethan-1-one], the concentration for half-maximal inhibition (IC50) in test [1], in test [2] and in test [3] was 0.0001 to 10 µM throughout.

As for `NC(=O)N1[C@@H]2CC[C@H]1CN(c1nc(OCC34CCCN3CCC4)nc3cc(-c4cc(O)cc5ccccc45)ccc13)C2` [P-0067, (1R,5S)-3-(7-(3-hydroxynaphthalen-1-yl)-2-((tetrahydro-1H-pyrrolizin-7a(5H)-yl)methoxy)quinazolin-4-yl)-3,8-diazabicyclo[3.2.1]octane-8-carboxamide], the IC50 in test [1], in test [2] and in test [3] was 0.0001 to 10 µM throughout.

For the compound `COC(=O)CCC(=O)N1[C@@H]2CC[C@H]1CN(c1nc(OCC34CCCN3CCC4)nc3cc(-c4cc(O)cc5ccccc45)ccc13)C2` [P-0068, methyl 4-((1R,5S)-3-(7-(3-hydroxynaphthalen-1-yl)-2-((tetrahydro-1H-pyrrolizin-7a(5H)-yl)methoxy)quinazolin-4-yl)-3,8-diazabicyclo[3.2.1]octan-8-yl)-4-oxobutanoate], the IC50 in test [1], in test [2] and in test [3] was 0.0001 to 10 µM each time.

With `Cc1cccc2cc(O)cc(-c3ccc4c(N5C[C@H]6CC[C@@H](C5)N6)nc(OCC56CCCN5CCC6)nc4c3F)c12` [P-0085, 4-(4-((1R,5S)-3,8-diazabicyclo[3.2.1]octan-3-yl)-8-fluoro-2-((tetrahydro-1H-pyrrolizin-7a(5H)-yl)methoxy)quinazolin-7-yl)-5-methylnaphthalen-2-ol], the IC50 in test [1], in test [2] and in test [3] was 0.0001 to 10 µM throughout.

`Cc1cccc2cc(O)cc(-c3c(F)cc4c(N5C[C@H]6CC[C@@H](C5)N6)nc(OCC56CCCN5CCC6)nc4c3F)c12` [P-0088, 4-(4-((1R,5S)-3,8-diazabicyclo[3.2.1]octan-3-yl)-6,8-difluoro-2-((tetrahydro-1H-pyrrolizin-7a(5H)-yl)methoxy)quinazolin-7-yl)-5-methylnaphthalen-2-ol]: the half-maximal inhibitory concentration (IC50) in test [1], in test [2] and in test [3] was 0.0001 to 10 µM in each case.

For `CCCNS(=O)(=O)N1[C@@H]2CC[C@H]1CN(c1nc(OCC34CCCN3CCC4)nc3cc(-c4cc(O)cc5ccccc45)ccc13)C2` [P-0096, (1R,5S)-3-(7-(3-hydroxynaphthalen-1-yl)-2-((tetrahydro-1H-pyrrolizin-7a(5H)-yl)methoxy)quinazolin-4-yl)-N-propyl-3,8-diazabicyclo[3.2.1]octane-8-sulfonamide], the IC50 is 0.0001 to 10 µM in test [1], 0.0001 to 10 µM in test [2] and 10 to 100 µM in test [3].

For `O=C(c1n[nH]c(=O)[nH]1)N1[C@@H]2CC[C@H]1CN(c1nc(OCC34CCCN3CCC4)nc3cc(-c4cc(O)cc5ccccc45)ccc13)C2` [P-0099, 5-((1R,5S)-3-(7-(3-hydroxynaphthalen-1-yl)-2-((tetrahydro-1H-pyrrolizin-7a(5H)-yl)methoxy)quinazolin-4-yl)-3,8-diazabicyclo[3.2.1]octane-8-carbonyl)-2,4-dihydro-3H-1,2,4-triazol-3-one], the IC50 in test [1], in test [2] and in test [3] was 0.0001 to 10 µM each time.

Turning to `NCC(O)CC(=O)N1[C@@H]2CC[C@H]1CN(c1nc(OCC34CCCN3CCC4)nc3cc(-c4cc(O)cc5ccccc45)ccc13)C2` (stereo partly drawn) [P-0100, 4-amino-3-hydroxy-1-((1R,5S)-3-(7-(3-hydroxynaphthalen-1-yl)-2-((tetrahydro-1H-pyrrolizin-7a(5H)-yl)methoxy)quinazolin-4-yl)-3,8-diazabicyclo[3.2.1]octan-8-yl)butan-1-one], the IC50 in test [1], in test [2] and in test [3] was 0.0001 to 10 µM in each case.

Take `Oc1cc(-c2ccc3c(N4C[C@H]5CC[C@@H](C4)N5)nc(OCC45CCCCN4CCC5)nc3c2)c2ccccc2c1` (stereo partly drawn) [P-0102, 4-(4-((1R,5S)-3,8-diazabicyclo[3.2.1]octan-3-yl)-2-((hexahydroindolizin-8a(1H)-yl)methoxy)quinazolin-7-yl)naphthalen-2-ol]: the half-inhibitory concentration (IC50) in test [1], in test [2] and in test [3] was 0.0001 to 10 µM in each case.

With `CN1CCC[C@H]1COc1nc(N2C[C@H]3CC[C@@H](C2)N3C(N)=O)c2ccc(-c3cc(O)cc4ccccc34)c(F)c2n1` [P-0103, (1R,5S)-3-(8-fluoro-7-(3-hydroxynaphthalen-1-yl)-2-(((S)-1-methylpyrrolidin-2-yl)methoxy)quinazolin-4-yl)-3,8-diazabicyclo[3.2.1]octane-8-carboxamide], the concentration for half-maximal inhibition (IC50) in test [1], in test [2] and in test [3] was 0.0001 to 10 µM throughout.
